Laboratory results from patent publication US6737383B1, “Herbicidal oxadiazolidines” (priority 1999, dated 2004).

How the values were obtained:
wheat = experiment: Test B pre/postemergence wheat; format: in vivo, Triticum aestivum; conditions: Preemergence, scale of 0 to 10 where 0 is no effect and 10 is complete control
Procedure, shortened: (§1)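 Herbicidal effect was estimated by eye on a ten-point control scale after plants spent twelve to sixteen days in a greenhouse following soil or foliar treatment. Foliar sprays targeted plants at one to four leaves; all doses were formulated in a non-phytotoxic solvent with surfactant.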

duck salad = experiment: Test B flood test duck salad; format: in vivo, Heteranthera limosa
Procedure, shortened: (§2)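 Flood test on plants grown to the 2-leaf stage; treated plants kept in greenhouse twelve to sixteen days, then visually rated against controls on a 0 (no effect) to 10 (complete control) scale.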

bamyardgrass = experiment: Test B flood test barnyardgrass; format: in vivo, Echinochloa crus-galli
Procedure, shortened: as §2

rice = experiment: Test B flood test rice; format: in vivo, Oryza sativa
Procedure, shortened: as §2

morningglory = experiment: Test B pre/postemergence morningglory; format: in vivo, Ipomoea hederacea; conditions: Preemergence, scale of 0 to 10 where 0 is no effect and 10 is complete control
Procedure, shortened: as §1

pigweed = experiment: Test B pre/postemergence pigweed; format: in vivo, Amaranthus retroflexus; conditions: Preemergence, scale of 0 to 10 where 0 is no effect and 10 is complete control
Procedure, shortened: as §1

smallflower flatsedge = experiment: Test B flood test smallflower flatsedge; format: in vivo, Cyperus difformis
Procedure, shortened: as §2

cocklebur = experiment: Test B pre/postemergence cocklebur; format: in vivo, Xanthium strumarium; conditions: Preemergence
Procedure, shortened: as §1

crabgrass = experiment: Test B pre/postemergence crabgrass; format: in vivo, Digitaria sanguinalis; conditions: Preemergence
Procedure, shortened: as §1

blackgrass = experiment: Test B pre/postemergence blackgrass; format: in vivo, Alopecurus myosuroides; conditions: Preemergence
Procedure, shortened: as §1

soybean = experiment: Test B pre/postemergence soybean; format: in vivo, Glycine max; conditions: Preemergence, scale of 0 to 10 where 0 is no effect and 10 is complete control
Procedure, shortened: as §1

surinam grass = experiment: Test B pre/postemergence surinam grass; format: in vivo, Brachiaria decumbens; conditions: Preemergence
Procedure, shortened: as §1

corn = experiment: Test B pre/postemergence corn; format: in vivo, Zea mays; conditions: Preemergence
Procedure, shortened: as §1

giant foxtail = experiment: Test B pre/postemergence giant foxtail; format: in vivo, Setaria faberii; conditions: Preemergence, scale of 0 to 10 where 0 is no effect and 10 is complete control
Procedure, shortened: as §1

wild oat = experiment: Test B pre/postemergence wild oat; format: in vivo, Avena fatua; conditions: Preemergence, Rate 125 g/ha; scale of 0 to 10 where 0 is no effect and 10 is complete control
Procedure, shortened: as §1

rape = experiment: Test B pre/postemergence rape; format: in vivo, Brassica napus; conditions: Preemergence, scale of 0 to 10 where 0 is no effect and 10 is complete control
Procedure, shortened: as §1

bedstraw = experiment: Test B pre/postemergence bedstraw; format: in vivo, Galium aparine; conditions: Preemergence
Procedure, shortened: as §1

purple nutsedge = experiment: Test B pre/postemergence purple nutsedge; format: in vivo, Cyperus rotundus; conditions: Preemergence, scale of 0 to 10 where 0 is no effect and 10 is complete control
Procedure, shortened: as §1

velvetleaf = experiment: Test B pre/postemergence velvetleaf; format: in vivo, Abutilon theophrasti; conditions: Preemergence, scale of 0 to 10 where 0 is no effect and 10 is complete control
Procedure, shortened: as §1

sugar beet = experiment: Test B pre/postemergence sugar beet; format: in vivo, Beta vulgaris; conditions: Preemergence, scale of 0 to 10 where 0 is no effect and 10 is complete control
Procedure, shortened: as §1

[1] = Rate 62 g/ha, flood test species, Pre-emergence, visual evaluation after twelve to sixteen days
[2] = Rate 125 g/ha, under heading Pre-emergence, flood test species, visual evaluation after twelve to sixteen days
[3] = Rate 250 g/ha, Pre-emergence (flood test species), scale 0 to 10, 0 is no effect, 10 is complete control
[4] = Rate 500 g/ha, Pre-emergence section of Table B, 0 to 10 scale (0 no effect, 10 complete control)
[5] = Rate 62 g/ha, scale of 0 to 10 where 0 is no effect and 10 is complete control
[6] = Rate 125 g/ha, scale of 0 to 10 where 0 is no effect and 10 is complete control
[7] = Rate 250 g/ha, scale 0 to 10 (0 no effect, 10 complete control)
[8] = Rate 500 g/ha, scale of 0 to 10 where 0 is no effect and 10 is complete control

## CC(C)N(C(=O)n1oc(=O)n(C(C)C2CCC2)c1=O)c1ccc(F)cc1F (stereo not drawn) [Compound 702]
wheat; Rate 62 g/ha
  Wheat plant response rating: 0
wheat; Rate 125 g/ha
  Plant response rating, Wheat: 0
Duck salad; [1]
  Plant response rating, Ducksalad (0 to 10 scale, 0 is no effect, 10 is complete control): 0
Duck salad; [2]
  Ducksalad plant response rating (0 to 10 scale, 0 is no effect, 10 is complete control): 0
Duck salad; [3]
  Ducksalad plant response rating: 0
Duck salad; [4]
  Ducksalad plant response rating: 0
bamyardgrass; [1]
  Plant response rating, Barnyardgrass (0 to 10 scale, 0 is no effect, 10 is complete control): 0
bamyardgrass; [2]
  Barnyardgrass plant response rating (0 to 10 scale, 0 is no effect, 10 is complete control): 0
bamyardgrass; [3]
  Barnyardgrass plant response rating: 0
bamyardgrass; [4]
  Barnyardgrass plant response rating: 0
rice; [1]
  Plant response rating, Rice (0 to 10 scale, 0 is no effect, 10 is complete control): 0
rice; [2]
  Rice plant response rating (0 to 10 scale, 0 is no effect, 10 is complete control): 0
rice; [3]
  Rice plant response rating: 0
rice; [4]
  Rice plant response rating: 0
morningglory; Rate 62 g/ha
  Morningglory plant response rating: 0
morningglory; Rate 125 g/ha
  Plant response rating, Morningglory: 0
pigweed; Rate 62 g/ha
  Redroot pigweed plant response rating: 2
pigweed; Rate 125 g/ha
  Plant response rating, Redroot pigweed: 5
Smallflower flatsedge; [1]
  Plant response rating, S. Flatsedge (0 to 10 scale, 0 is no effect, 10 is complete control): 0
Smallflower flatsedge; [2]
  S. Flatsedge plant response rating (0 to 10 scale, 0 is no effect, 10 is complete control): 0
Smallflower flatsedge; [3]
  S. Flatsedge plant response rating: 0
Smallflower flatsedge; [4]
  S. Flatsedge plant response rating: 0
cocklebur; [5]
  Cocklebur plant response rating: 0
cocklebur; [6]
  Plant response rating, Cocklebur: 0
cocklebur; [7]
  Plant response rating, Cocklebur: 0
cocklebur; [8]
  Plant response rating, Cocklebur: 0
crabgrass; [5]
  Crabgrass plant response rating: 9
crabgrass; [6]
  Plant response rating, Crabgrass: 10
crabgrass; [7]
  Plant response rating, Crabgrass: 10
blackgrass; [5]
  Blackgrass plant response rating: 2
blackgrass; [6]
  Plant response rating, Blackgrass: 2
blackgrass; [7]
  Plant response rating, Blackgrass: 9
blackgrass; [8]
  Plant response rating, Blackgrass: 10
soybean; Rate 62 g/ha
  Soybean plant response rating: 0
soybean; Rate 125 g/ha
  Plant response rating, Soybean: 0
Surinam grass; [5]
  B. signalgrass plant response rating: 0
Surinam grass; [6]
  Plant response rating, B. signalgrass: 2
Surinam grass; [7]
  Plant response rating, B. signalgrass: 2
Surinam grass; [8]
  Plant response rating, B. signalgrass: 8
corn; [5]
  Corn plant response rating: 0
corn; [6]
  Plant response rating, Corn: 0
corn; [7]
  Plant response rating, Corn: 0
Giant foxtail; Rate 62 g/ha
  Giant foxtail plant response rating: 10
Giant foxtail; Rate 125 g/ha
  Plant response rating, Giant foxtail: 10
Wild oat
  Plant response rating, Wild oats: 0
rape; Rate 62 g/ha
  Rape plant response rating: 0
rape; Rate 125 g/ha
  Plant response rating, Rape: 0
bedstraw; [5]
  Bedstraw plant response rating: 0
bedstraw; [6]
  Plant response rating, Bedstraw: 0
bedstraw; [7]
  Plant response rating, Bedstraw: 0
bedstraw; [8]
  Plant response rating, Bedstraw: 0
Purple nutsedge; Rate 62 g/ha
  Nutsedge plant response rating: 0
Purple nutsedge; Rate 125 g/ha
  Plant response rating, Nutsedge: 0
velvetleaf; Rate 62 g/ha
  Velvetleaf plant response rating: 0
velvetleaf; Rate 125 g/ha
  Plant response rating, Velvetleaf: 0
Sugar beet; Rate 62 g/ha
  Sugarbeets plant response rating: 0
Sugar beet; Rate 125 g/ha
  Plant response rating, Sugarbeets: 0
